Molecules are shown by their SMILES. Activity calls are given as the source filed them. No cut-off for these calls is given here.

Experimental findings from ChEMBL document CHEMBL5252657, “Artefenomel Regioisomer RLA-3107 Is a Promising Lead for the Discovery of Next-Generation Endoperoxide Antimalarials” (ACS Med Chem Lett, 2023) are described below.

The nature of data set [1]: Aqueous solubility of the compound in PBS at pH 7.4. The data set is classed as physicochemical.
The subject of data set [2] is Plasmodium berghei. Briefly: Antiplasmodial activity against Plasmodium berghei infected in Swiss Webster mouse model assessed as reduction in parasitemia at 20 mg/kg, po administered as single dose and measured after 30 days by Giemsa staining based microscopic analysis. The data set is classed as functional, organism-based. The note with it: time 30.0 day.
Data set [3] concerns Plasmodium berghei. Briefly: Antiplasmodial activity against Plasmodium berghei infected in Swiss Webster mouse model assessed as reduction in parasitemia at 30 mg/kg, po administered as single dose and measured after 30 days by Giemsa staining based microscopic analysis. The data set is classed as functional, organism-based. The note with it: time 30.0 day.
In data set [4] the test system is Plasmodium berghei. The data set is described as follows: Antiplasmodial activity against Plasmodium berghei infected in Swiss Webster mouse model assessed as reduction in parasitemia at 40 mg/kg, po administered as single dose and measured after 11 days by Giemsa staining based microscopic analysis. The note with it: time 11.0 day. It counts as functional, organism-based.

Data set [5] has as its system Plasmodium berghei. The data set is described as follows: Antiplasmodial activity against Plasmodium berghei infected in Swiss Webster mouse model assessed as reduction in parasitemia at 30 mg/kg, po administered as single dose and measured after 11 days by Giemsa staining based microscopic analysis. The data set is classed as functional, organism-based. The note with it: time 11.0 day.

For data set [6], the system named is Plasmodium berghei. The data set is described as follows: Antiplasmodial activity against Plasmodium berghei infected in Swiss Webster mouse model assessed as reduction in parasitemia at 10 mg/kg, po administered once daily for 4 days and measured after 11 days by Giemsa staining based microscopic analysis. The data set is classed as functional, organism-based. The note with it: time 11.0 day.

Data set [7] has as its system Plasmodium berghei. Briefly: Antiplasmodial activity against Plasmodium berghei infected in Swiss Webster mouse model assessed as reduction in parasitemia at 6 mg/kg, po administered once daily for 4 days and measured after 11 days by Giemsa staining based microscopic analysis. It counts as functional, organism-based. The note with it: time 11.0 day.
Data set [8] relates to Plasmodium berghei. The data set is described as follows: Antiplasmodial activity against Plasmodium berghei infected in Swiss Webster mouse model assessed as reduction in parasitemia at 10 mg/kg, po administered once daily for 4 days and measured after 30 days by Giemsa staining based microscopic analysis. The note with it: time 30.0 day. The data set is classed as functional, organism-based.

In another data set the test system is Plasmodium falciparum. Briefly: Antiplasmodial activity against chloroquine-resistant ring stage Plasmodium falciparum W2 infected in human erythrocytes assessed as reduction in parasite growth incubated for 48 hrs by YOYO-1 dye based flow cytometric analysis. The data set is classed as functional, organism-based. The note with it: W2, Erythrocyte. For orientation: Flow cytometry measures light scatter and fluorescence of single cells or particles in a stream.

The subject of data set [9] is Plasmodium berghei. Briefly: Antiplasmodial activity against Plasmodium berghei infected in Swiss Webster mouse model assessed as reduction in parasitemia at 4 mg/kg, po administered once daily for 4 days and measured after 11 days by Giemsa staining based microscopic analysis. The note with it: time 11.0 day. The data set is classed as functional, organism-based.
The test system of data set [10] is Plasmodium berghei. The data set is described as follows: Antiplasmodial activity against Plasmodium berghei infected in Swiss Webster mouse model assessed as reduction in parasitemia at 40 mg/kg, po administered as single dose and measured after 30 days by Giemsa staining based microscopic analysis. The data set is classed as functional, organism-based. The note with it: time 30.0 day.

Data set [11] has as its system Plasmodium berghei. Briefly: Antiplasmodial activity against Plasmodium berghei infected in Swiss Webster mouse model assessed as reduction in parasitemia at 80 mg/kg, po administered as single dose and measured after 30 days by Giemsa staining based microscopic analysis. The data set is classed as functional, organism-based. The note with it: time 30.0 day.
Data set [12] concerns Plasmodium berghei. Briefly: Antiplasmodial activity against Plasmodium berghei infected in Swiss Webster mouse model assessed as reduction in parasitemia at 80 mg/kg, po administered as single dose and measured after 11 days by Giemsa staining based microscopic analysis. It counts as functional, organism-based. The note with it: time 11.0 day.
Data set [13] deals with Plasmodium berghei. The data set is described as follows: Antiplasmodial activity against Plasmodium berghei infected in Swiss Webster mouse model assessed as reduction in parasitemia at 6 mg/kg, po administered once daily for 4 days and measured after 30 days by Giemsa staining based microscopic analysis. The data set is classed as functional, organism-based. The conditions noted are these: time 30.0 day.

Data set [14] deals with Plasmodium berghei. Briefly: Antiplasmodial activity against Plasmodium berghei infected in Swiss Webster mouse model assessed as reduction in parasitemia at 2 mg/kg, po administered once daily for 4 days and measured after 11 days by Giemsa staining based microscopic analysis. It counts as functional, organism-based. The conditions noted are these: time 11.0 day.
Data set [15] deals with Plasmodium berghei. The data set is described as follows: Antiplasmodial activity against Plasmodium berghei infected in Swiss Webster mouse model assessed as reduction in parasitemia at 2 mg/kg, po administered once daily for 4 days and measured after 30 days by Giemsa staining based microscopic analysis. The data set is classed as functional, organism-based. The note with it: time 30.0 day.

The test system of data set [16] is Plasmodium berghei. The data set is described as follows: Antiplasmodial activity against Plasmodium berghei infected in Swiss Webster mouse model assessed as reduction in parasitemia at 4 mg/kg, po administered once daily for 4 days and measured after 30 days by Giemsa staining based microscopic analysis. The data set is classed as functional, organism-based. The note with it: time 30.0 day.

Data set [17] can be described thus: Stability in human liver microsomes assessed as intrinsic clearance at 1 uM measured upto 60 mins by LC-MS/MS analysis. The data set is classed as ADME, Microsome. The note with it: read-out: CLH. Background: Liver microsomes are a subcellular fraction often used to study metabolism.

As usually defined, the solubility is the concentration that dissolves in the medium under given conditions. High values mean a readily soluble substance, low ones a poorly soluble substance. `O=C([O-])Cc1ccccc1Nc1c(Cl)cccc1Cl.[Na+]` [DICLOFENAC SODIUM]: in [1], the solubility was 199 µM.
One may read the EC50 as the concentration at which the effect is half-maximal. In the case of `c1cc([C@H]2CC[C@@]3(CC2)OOC2(O3)C3CC4CC(C3)CC2C4)ccc1OCCN1CCOCC1` (stereo not given in full), the result in the data set on Plasmodium berghei [2], in the data set on Plasmodium berghei [3], in the data set with Plasmodium berghei [4], with Plasmodium berghei [5], in the data set on Plasmodium berghei [6] and with Plasmodium berghei [7] was Active. The outcome in the data set with Plasmodium berghei [8], in the data set on Plasmodium berghei [9], with Plasmodium berghei [10], in the data set on Plasmodium berghei [11], in the data set with Plasmodium berghei [12] and in the data set with Plasmodium berghei [13] was Active. For the same compound, in the data set with Plasmodium falciparum, the 50% effective concentration (EC50) was found to be 0.0112 µM. Besides, the solubility in data set [1] is below 2.5 µM.
For the compound `C[C@@H]1CC[C@H]2[C@@H](C)C(=O)O[C@@H]3O[C@@]4(C)CC[C@@H]1[C@]32OO4` [ARTEMISININ], in the data set on Plasmodium falciparum, the EC50 came to 0.0173 µM.
For `c1cc([C@H]2CCC[C@@]3(C2)OOC2(O3)C3CC4CC(C3)CC2C4)ccc1OCCN1CCOCC1` (stereo not given in full), the outcome with Plasmodium berghei [2], with Plasmodium berghei [3], with Plasmodium berghei [14], in the data set with Plasmodium berghei [15], with Plasmodium berghei [7] and with Plasmodium berghei [8] was inactive. In addition, the outcome with Plasmodium berghei [9], with Plasmodium berghei [16] and in the data set on Plasmodium berghei [13] was inactive. The result in the data set on Plasmodium berghei [5], with Plasmodium berghei [11] and in the data set on Plasmodium berghei [12] was Active. For the same compound, the concentration giving a half-maximal response (EC50) in the data set with Plasmodium falciparum is 0.0241 µM. In [17], the microsomal CLint at 1 µM is 21.3 µL/min/mg.
